Data: patent EP0097633B1, “Determination of the sensitivity of virus to antiviral agents” (Wahren, Britta, priority 1982, dated 1984)
Read-outs that look alike come from different tables or passages of the source.

Legend:
[1] = test system: virus isolate from an eye IDU treated with without result; assay: VSA on a virus isolate from an eye treated with IDU without result (Example 3); type: cell-based
Procedure: (§1) Sterile plastic plates comprising 24 wells, each having a culture surface of 2.5 cm^2 and containing about 5 x 10^5 HL-cells/well were inoculated with 0.1 ml of virus dilutions as above. Such of the above virus dilutions only containing a small amount of virus are first cultured for 3 days in HL-cells, on which virus replicates, after which the virus isolate from one cell passage is taken out, is diluted 1:30 and 0.1 ml of the dilutions is added to the plates as indicated above. The cells are then incubated at a temperature of 32-37°C, with addition of different antiviral agents, and without any addition of antiviral agent to obtain reference values. Each antiviral agent is added in a dilution series comprising six different concentrations (Cl-C6), some of which correspond to desired serum concentrations for the treatment of patients. In table 1 is indicated the antiviral agents and concentrations thereof used.
(§2) The supernatant is sucked off and in order to achieve cell disrupture 800 µl of distilled water are added to the cells on the plates. The plates are frozen at -20°C and after some time sufficient for formation of ice crystals (about 15 min) the plates are thawed to room temperature for measurement of virus antigen. If desired, the plates can be preserved in a frozen state for a long time before they are thawed in order to carry out the measurement of virus antigen. When the plates have thawed 200 µl of NaCI of 4.5% are added to the cells in order to obtain an isotonic solution.
(§3) The amount of virus antigen formed is thereafter determined as follows. Guinea pig anti-HSV-serum is diluted in 0.1-M sodium carbonate buffer. 0.1 ml of the serum dilution is filled per well in microplates (M 29 AR, Dynatech, Zug, Switzerland) which have been washed three times with NaCI-solution of 0.9% containing 0.05% of Tween® 20, after which the plates are incubated for 16 hours at room temperature. The plates can be preserved sealed with their contents at +4°C up to 2-3 months.
(§4) 0.1 ml of the cell material obtained above or a known virus antigen is filled into plates treated with antibody and is incubated for 4 hours at +4°C. After washing with the washing solution indicated above 0.1 ml of rabbit anti-HSV is added and the plates are incubated for 2 hours at +37°C. The plates are washed and 0.1 ml of conjugate is added, after which they are incubated for 2 hours at +37°C. The conjugate consists of pig anti-rabbit IgG conjugated with alkaline phosphatase (Orion Diagnostica, Helsinki, Finland) in a dilution of 1:100. Non-bonded conjugate is washed off before 100 pl of the substrate p-nitrophenyl phosphate (1 mg/ml, Sigma, St Louis, MO, USA) are added. For dilution of the substrate 1 M diethanol buffer, pH 9.8 containing 0.5 x 10-^3 M MgC12 is used and for dilution of antisera and conjugate phosphate buffer (PBS), pH 7.3-7.4 with 0.5% of Tween® 20, 0.5% of BSA (bovine serum albumin) and 0.02% of NaN3 is used. The reaction is stopped after 20-60 min with 0.025 ml of 5 M NaOH. The absorbance (A) is thereafter read at 405 nm with Titertek Multiskan® (Flow Laboratories, Irvine, Scotland).

HSV = assay: Virus sensitivity assay (VSA): HSV patient material replicated in HL-cells with antiviral agent, cell disruption, virus antigen by ELISA sandwich technique (Example 1); type: cell-based, herpes simplex virus (HSV); conditions: for absorbance (A) at 405 nm: disrupted cells, culture of 1 to 3 days; for sensitivity of the investigated HSV to the antiviral agent: read from Fig. 1
Procedure: A material from a patient containing living HSV is mixed with a small amount of Eagle's tissue culture medium containing 2% of calf serum, 100 IE penicillin/ml and 100 […] of streptomycin/ml, after which the virus mixture is diluted 1:30 in this medium.
as §1
As a background control of virus replication taking place and for a direct typing of virus 2 cell containing wells/plate are inoculated with a mixture of 0.1 ml virus dilution and 0.05 ml of Brij-58 of 1%.
After a culture of 1 to 3 days the effect of the antiviral agents is then evaluated by measurement with ELISA sandwich technique as described below. However, the cells are treated in the following way before this measurement.
as §2
as §3, with “months. The optimal antibody concentration has been determined by antibody titration with the respective antigen and control antigen.” for “months.”
as §4, with “Scotland). […]” for “Scotland).”

HSV-1 = assay: VSA on HL-cells infected with HSV-1, virus antigen measured in supernatant and in cells disrupted with distilled water (Example 2); type: cell-based; conditions: for Absorbance values at 405 nm: 3 days
Procedure: as §1, §2
as §3, with “months. The optimal antibody concentration has been determined by antibody titration with the respective antigen and control antigen.” for “months.”
as §4, with “Scotland). Absorbance values then obtained at the concentrations C1―C6 of the antiviral agents from table 1 and at the concentration Co = O are indicated in the following table 2.” for “Scotland).”
HL-cells infected with HSV-1 were incubated in the same way as in example 1 in the presence of Ara-A and IDU in the concentrations indicated in table 1 for 3 days. Reference culture without addition of antiviral agent was also carried out. The virus antigen in the supernatant (---) and in cells disrupted with distilled water (-) was thereafter measured in the same way as in example 1, and the results are found in table 3 and Fig. 2.

[2] = cited from earlier work
[3] = C1: Ara-A 5, ACV 0.15, PFA 25, IDU 0.5 μM, C0 (no agent) 1.605
[4] = C2: Ara-A 10, ACV 0.31, PFA 50, IDU 1 μM, C0 1.605
[5] = C3: Ara-A 20, ACV 0.63, PFA 100, IDU 2 μM, C0 1.605
[6] = C4: Ara-A 40, ACV 1.25, PFA 200, IDU 4 μM, C0 1.605
[7] = C5: Ara-A 80, ACV 2.5, PFA 400, IDU 8 μM, C0 1.605
[8] = C6: Ara-A 160, ACV 5, PFA 800, IDU 16 μM, C0 1.605
[9] = C1: Ara-A 5, ACV 0.15, PFA 25, IDU 0.5 μM, C0 (no agent) 1.425
[10] = C2: Ara-A 10, ACV 0.31, PFA 50, IDU 1 μM, C0 1.425
[11] = C3: Ara-A 20, ACV 0.63, PFA 100, IDU 2 μM, C0 1.425
[12] = C4: Ara-A 40, ACV 1.25, PFA 200, IDU 4 μM, C0 1.425
[13] = C5: Ara-A 80, ACV 2.5, PFA 400, IDU 8 μM, C0 1.425
[14] = C6: Ara-A 160, ACV 5, PFA 800, IDU 16 μM, C0 1.425
[15] = cells disrupted with distilled water, C1: Ara-A 5, IDU 0.5 μM
[16] = cells disrupted with distilled water, C2: Ara-A 10, IDU 1 μM
[17] = cells disrupted with distilled water, C3: Ara-A 20, IDU 2 μM
[18] = cells disrupted with distilled water, C4: Ara-A 40, IDU 4 μM
[19] = cells disrupted with distilled water, C5: Ara-A 80, IDU 8 μM
[20] = cells disrupted with distilled water, C6: Ara-A 160, IDU 16 μM
[21] = supernatant, C1: Ara-A 5, IDU 0.5 μM
[22] = supernatant, C2: Ara-A 10, IDU 1 μM
[23] = supernatant, C3: Ara-A 20, IDU 2 μM
[24] = supernatant, C4: Ara-A 40, IDU 4 μM
[25] = supernatant, C5: Ara-A 80, IDU 8 μM
[26] = supernatant, C6: Ara-A 160, IDU 16 μM

Row | SMILES | adsorbance values [1, 3] | adsorbance values [1, 4] | adsorbance values [1, 5] | adsorbance values [1, 6] | adsorbance values [1, 7] | adsorbance values [1, 8] | absorbance (A) at 405 nm (HSV; [9]) | absorbance (A) at 405 nm (HSV; [10]) | absorbance (A) at 405 nm (HSV; [11]) | absorbance (A) at 405 nm (HSV; [12]) | absorbance (A) at 405 nm (HSV; [13]) | absorbance (A) at 405 nm (HSV; [14]) | sensitivity of the investigated HSV to the antiviral agent (HSV) | Absorbance values at 405 nm (HSV-1; [15]) | Absorbance values at 405 nm (HSV-1; [16]) | Absorbance values at 405 nm (HSV-1; [17]) | Absorbance values at 405 nm (HSV-1; [18]) | Absorbance values at 405 nm (HSV-1; [19]) | Absorbance values at 405 nm (HSV-1; [20]) | Absorbance values at 405 nm (HSV-1; [21]) | also measured
1 | Nc1nc2c(ncn2COCCO)c(=O)[nH]1 [ACV, acyclovir] | 1.608 | 1.615 | 1.594 | 1.179 | 1.475 | 1.415 | 1.382 | 1.135 | 0.958 | 0.810 | 0.547 | 0.361 | high sensitivity |  |  |  |  |  |  |  | 
2 | Nc1ncnc2c1ncn2C1OC(CO)C(O)C1O (centres unmarked) [Ara-A, adenosine-arabinoside] | 1.572 | 1.482 | 0.750 | 0.155 | 0.071 | 0.039 | 1.505 | 1.132 | 1.017 | 0.892 | 0.520 | 0.473 |  | 1.130 ± 0.052 | 1.073 ± 0.054 | 0.863 ± 0.030 | 0.513 ± 0.025 | 0.142 ± 0.009 | 0.119 | 0.384 ± 0.025 | 50% of inhibition of antigen formation in the cells (HSV-1; read from Fig. 2, disrupted cells): in clinically relevant concentrations; Absorbance values at 405 nm (HSV-1; [22]): 0.323 ± 0.010; Absorbance values at 405 nm (HSV-1; [23]): 0.276 ± 0.006; Absorbance values at 405 nm (HSV-1; [24]): 0.184 ± 0.009; Absorbance values at 405 nm (HSV-1; [25]): 0.099 ± 0.006; Absorbance values at 405 nm (HSV-1; [26]): 0.099
3 | O=c1[nH]c(=O)n([C@H]2C[C@H](O)[C@@H](CO)O2)cc1I [IDU, iododeoxyuridine] | 1.207 | 1.165 | 0.951 | 0.739 | 0.706 | 0.502 | 1.011 | 0.847 | 0.671 | 0.536 | 0.344 | 0.298 |  | 1.130 ± 0.052 | 1.075 ± 0.054 | 0.863 ± 0.030 | 0.513 ± 0.025 | 0.142 ± 0.009 | 0.119 | 0.320 ± 0.037 | Absorbance values at 405 nm (HSV-1; [22]): 0.259 ± 0.005; Absorbance values at 405 nm (HSV-1; [23]): 0.201 ± 0.025; Absorbance values at 405 nm (HSV-1; [24]): 0.142 ± 0.019; Absorbance values at 405 nm (HSV-1; [25]): 0.091 ± 0.017; Absorbance values at 405 nm (HSV-1; [26]): 0.143; Serum concentrations used clinically ([2]; concentrations are measured in lachrymal fluid): 4—400^1 μM or IU/ml
4 | O=C(O)P(=O)(O)O [PFA, phosphonoformic acid] | 1.487 | 1.502 | 0.656 | 0.216 | 0.092 | 0.083 | 1.437 | 1.391 | 1.346 | 1.321 | 0.893 | 0.310 | a lower one |  |  |  |  |  |  |  | Serum concentrations used clinically ([2]; serum, desired concentrations for the treatment of patients): 100 μM or IU/ml
